Assay results published in publication PMC11648822, “Lactam Truncation Yields a Dihydroquinazolinone Scaffold with Potent Antimalarial Activity that Targets PfATP4” (Chemmedchem, 2024).

Target: T1, Dd2‐PfATP4^WT (Plasmodium falciparum, UniProt A0A143ZZK9, G1128R)
T1 construct: We prepared membranes from Dd2‐Polδ‐PfATP4^G358S parasites (generated previously[22]) and Dd2‐Polδ parental parasites; endogenous in cells; host or cells: P. falciparum Dd2-Polδ trophozoites (membrane preparation)
T1 sequence (A0A143ZZK9 1-1264 G1128R): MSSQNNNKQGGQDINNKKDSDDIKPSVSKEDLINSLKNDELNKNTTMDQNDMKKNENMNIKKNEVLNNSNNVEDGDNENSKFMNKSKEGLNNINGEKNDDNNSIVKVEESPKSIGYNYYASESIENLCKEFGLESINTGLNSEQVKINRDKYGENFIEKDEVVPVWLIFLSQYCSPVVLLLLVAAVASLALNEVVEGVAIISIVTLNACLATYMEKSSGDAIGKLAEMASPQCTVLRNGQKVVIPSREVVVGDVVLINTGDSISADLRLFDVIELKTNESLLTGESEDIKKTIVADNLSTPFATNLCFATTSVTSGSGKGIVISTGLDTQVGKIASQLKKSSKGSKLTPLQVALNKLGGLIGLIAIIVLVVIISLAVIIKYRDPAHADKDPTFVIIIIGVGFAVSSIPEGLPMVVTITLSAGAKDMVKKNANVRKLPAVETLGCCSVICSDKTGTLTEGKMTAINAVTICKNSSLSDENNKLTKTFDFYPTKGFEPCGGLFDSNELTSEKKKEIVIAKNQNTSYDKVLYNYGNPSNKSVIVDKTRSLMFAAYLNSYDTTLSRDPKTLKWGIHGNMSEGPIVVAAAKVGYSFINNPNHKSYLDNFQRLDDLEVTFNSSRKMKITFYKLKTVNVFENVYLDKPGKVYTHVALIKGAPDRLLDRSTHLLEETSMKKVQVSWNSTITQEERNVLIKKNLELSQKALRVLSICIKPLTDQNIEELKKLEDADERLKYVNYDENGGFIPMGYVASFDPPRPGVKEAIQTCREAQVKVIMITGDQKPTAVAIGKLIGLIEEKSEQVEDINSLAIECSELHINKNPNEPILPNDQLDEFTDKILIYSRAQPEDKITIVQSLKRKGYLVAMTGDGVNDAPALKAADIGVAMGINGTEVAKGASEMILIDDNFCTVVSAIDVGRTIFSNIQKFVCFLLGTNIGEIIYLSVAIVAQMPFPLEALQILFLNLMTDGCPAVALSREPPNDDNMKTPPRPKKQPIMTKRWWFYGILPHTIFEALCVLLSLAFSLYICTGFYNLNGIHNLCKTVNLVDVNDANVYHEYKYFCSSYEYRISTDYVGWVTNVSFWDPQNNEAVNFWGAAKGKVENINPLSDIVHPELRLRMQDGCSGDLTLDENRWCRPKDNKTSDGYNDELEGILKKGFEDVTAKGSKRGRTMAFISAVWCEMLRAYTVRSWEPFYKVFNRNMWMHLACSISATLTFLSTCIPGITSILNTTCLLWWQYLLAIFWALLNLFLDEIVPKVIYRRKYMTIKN
Assay: PfATP4 Na+ assay (membrane ATPase), Dd2-Polδ parental membranes
Type: biochemical, P. falciparum
Conditions: membranes from Dd2-Polδ parental parasites
Procedure: Figure 4 Dihydroquinazolinone analogs 14 and 36 (WJM062) inhibit Na^+‐ATPase activity in membranes prepared from isolated P. falciparum parasites, consistent with them being PfATP4 inhibitors. (A) The effects of dihydroquinazolinone compounds (2 μM), dihydroartemisinin (DHA; 50 nM; negative control) and 0.2 % v/v DMSO (solvent‐only control) on membrane ATPase activity under high‐[Na^+] conditions (152 mM Na^+) and low‐[Na^+] conditions (2 mM Na^+; stemming from the addition of 1 mM Na2ATP) in the presence and absence of the PfATP4 inhibitor cipargamin (50 nM). The membranes were prepared from isolated trophozoite‐stage 3D7 parasites. The Pi produced is expressed as a percentage of that measured in the 152 mM Na^+ Control. The data are from four independent experiments performed with different membrane preparations; the symbols show the data from individual experiments and the bars show the mean (+SEM). In individual experiments, the Pi produced in the 152 mM Na^+ Control varied from 66 to 96 nmol per mg (total) protein per min. A repeated measures ANOVA with a post hoc Tukey test was used to compare the (pre‐normalised) data for different compounds and conditions. […] In B−D, the Pi production measured in the low‐[Na^+] (2 mM) condition was subtracted from that measured in high‐[Na^+] […] The PfATP4‐associated ATPase activity is expressed as a percentage of that obtained for the high‐[Na^+] […]

Structure (SMILES)	EC50
CN1C(=O)c2ccc(Cl)cc2NC1(C)C(=O)Nc1cncc(Cl)c1 (centres unmarked) [Compound 14, 7‐Chloro‐N‐(5‐chloro‐3‐pyridyl)‐2,3‐dimethyl‐4‐oxo‐1H‐quinazoline‐2‐carboxamide]	8.4 nM
COc1cc(F)c2c(c1)NC(C)(C(=O)Nc1cncc(Cl)c1)N(C)C2=O (centres unmarked) [Compound 36, N‐(5‐Chloropyridin‐3‐yl)‐5‐fluoro‐7‐methoxy‐2,3‐dimethyl‐4‐oxo‐1,2,3,4‐tetrahydroquinazoline‐2‐carboxamide]	7.8 nM
